Source: US20080261994A1, “CYCLOPROPANE COMPOUNDS AND PHARMACEUTICAL USE THEREOF” (Japan Tobacco Inc., priority 2003, published 2008)
Like-named read-outs stand apart in the source and are kept apart here.

How the values were obtained:
Format in all cases: biochemical
[1] = target: T1, MMP-1 (Homo sapiens, UniProt P03956); assay: MMP-1 inhibitory action (Type I collagen Activity Measurement kit, FITC-labeled collagen type I)
T1 sequence (P03956 100-469): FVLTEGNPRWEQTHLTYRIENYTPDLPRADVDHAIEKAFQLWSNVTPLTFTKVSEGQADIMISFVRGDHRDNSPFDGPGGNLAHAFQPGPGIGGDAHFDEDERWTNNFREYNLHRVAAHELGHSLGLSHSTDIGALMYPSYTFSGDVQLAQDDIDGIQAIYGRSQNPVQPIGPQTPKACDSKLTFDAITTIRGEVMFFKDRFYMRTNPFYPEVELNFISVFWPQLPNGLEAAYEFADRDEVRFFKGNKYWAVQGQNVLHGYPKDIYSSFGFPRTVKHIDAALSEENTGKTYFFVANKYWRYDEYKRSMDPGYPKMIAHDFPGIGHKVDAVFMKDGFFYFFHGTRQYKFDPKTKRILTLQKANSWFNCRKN

[2] = target: T2, aggrecanase-1 (Homo sapiens, UniProt O75173); assay: Aggrecanase-1 inhibitory action (Particle Assay, GAG release from aggrecan-containing polyacrylamide particles)
T2 sequence (O75173 213-837): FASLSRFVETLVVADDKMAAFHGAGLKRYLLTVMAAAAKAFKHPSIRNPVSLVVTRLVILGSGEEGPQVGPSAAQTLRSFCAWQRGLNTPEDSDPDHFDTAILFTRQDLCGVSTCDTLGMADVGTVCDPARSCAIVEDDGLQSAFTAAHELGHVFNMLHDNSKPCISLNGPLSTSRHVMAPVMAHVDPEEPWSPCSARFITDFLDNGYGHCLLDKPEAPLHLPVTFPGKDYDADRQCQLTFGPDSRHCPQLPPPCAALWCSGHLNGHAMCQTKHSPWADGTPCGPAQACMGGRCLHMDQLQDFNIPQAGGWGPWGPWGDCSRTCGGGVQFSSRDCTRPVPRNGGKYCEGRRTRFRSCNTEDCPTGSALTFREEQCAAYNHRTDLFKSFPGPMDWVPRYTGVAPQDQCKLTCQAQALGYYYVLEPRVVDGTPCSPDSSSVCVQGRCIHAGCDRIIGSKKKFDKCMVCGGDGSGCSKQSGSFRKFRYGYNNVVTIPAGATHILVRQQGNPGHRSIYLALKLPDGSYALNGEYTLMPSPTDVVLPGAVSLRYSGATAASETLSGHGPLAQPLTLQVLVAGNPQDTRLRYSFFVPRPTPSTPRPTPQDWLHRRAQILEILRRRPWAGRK
Outline: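 Enzyme and compound incubated with aggrecan-containing polyacrylamide particles in Tris-HCl buffer at 37° C for 15 h. Released GAG in supernatant measured with 1,9-dimethylmethylene blue at 595 nm against chondroitin sulfate standard; % inhibition from enzyme-free and inhibitor-free wells, reported as TC50 (μM).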

[3] = target: T3, Recombinant Human MMP-13 (Homo sapiens, UniProt P45452); assay: MMP-13 inhibitory activity (MMP-13 specific fluorescent substrate with quencher)
T3 construct: purchased R&D systems 511-MM
Procedure: Inhibitory activity of tested compounds on MMP-13 was measured using MMP-13 specific fluorescent substrate with quencher.
The enzyme and substrate were diluted with Tris-HCl buffer, and test compounds were diluted with dimethyl sulfoxide (DMSO).
Test compounds and the enzyme (Recombinant Human MMP-13: R&D systems, 511-MM) were added into 96-well plate. The reaction was initiated by adding synthetic substrate (7-MCA-Pro-CHA-Gly-NVal-His-Ala-DPA: enzyme systems products, Met-06) into the plate. After incubation at 25° C. for 1 h, the reaction was terminated by addition of reaction terminating solution containing acetic acid. Fluorescence intensity of each well was measured (Ex: 325 nm, […] 405 nm) and the MMP-13 inhibitory activity of the compound in each well (%) was calculated based on the values of enzyme-free well and inhibitor-free well. The inhibitory activity of the compound was represented as IC50 (μM).

[4] = MMP-1 inhibitory action, FITC-labeled collagen type I, 37° C. for 3 hr, read-out: IC50 MMP1 (Experimental Example 2)
[5] = aggrecanase-1 inhibitory action, read-out: IC50 AG1 (Experimental Example 1)
[6] = Recombinant Human MMP-13, fluorescent substrate, 25° C. for 1 h, read-out: IC50 MMP13 (Experimental Example 3)
[7] = Experimental Example 2, read-out: IC50 MMP1
[8] = Experimental Example 1, read-out: IC50 AG1
[9] = Experimental Example 3, read-out: IC50 MMP13

| Compound | IC50 [1, 4] | IC50 [2, 5] | IC50 [3, 6] | IC50 [1, 7] | IC50 [2, 8] | IC50 [3, 9] |
| --- | --- | --- | --- | --- | --- | --- |
| O=C(O)C1(NS(=O)(=O)c2ccc(-c3ccc(Cl)cc3)s2)CC1(CCCN1CCOCC1)c1ccccc1 (stereo not drawn) [Example 2-249] | ≥ 10 µM | < 0.1 µM | < 1 µM |  |  |  |
| O=C(O)C1(NS(=O)(=O)c2ccc(-c3cc(C(F)(F)F)on3)s2)CC1c1cccc(CCCO)c1 (stereo not drawn) [Example 2-236] | ≥ 1 µM | < 1 µM | < 0.1 µM |  |  |  |
| COC(=O)CCc1cccc(C2CC2(NS(=O)(=O)c2ccc(-c3ccc(Cl)cc3)s2)C(=O)O)c1 (stereo not drawn) [Example 2-208] | ≥ 1 µM | < 0.1 µM | < 0.1 µM |  |  |  |
| C[C@]1(c2ccccc2)C[C@@]1(NS(=O)(=O)c1ccc2c(c1)Cc1cc(Br)ccc1-2)C(=O)O [Example 2-100] | < 1 µM | < 0.1 µM | < 0.1 µM |  |  |  |
| CC1[C@H](c2ccccc2)[C@]1(NS(=O)(=O)c1ccc(-c2ccc3nonc3c2)s1)C(=O)O (stereo partly drawn) [Example 2-517] |  |  |  | ≥ 1 µM | < 0.1 µM | < 1 µM |
| COCCN1CCN(S(=O)(=O)N[C@@]2(C(=O)O)C(C)[C@@H]2c2ccccc2)CC1 (stereo partly drawn) [Example 2-534] |  |  |  | ≥ 1 µM | ≥ 1 µM | ≥ 1 µM |
| NCc1ccc(C2CC2(NS(=O)(=O)c2ccc(-c3ccc(Cl)cc3)s2)C(=O)O)cc1 (stereo not drawn) [Example 2-265] | ≥ 10 µM | < 1 µM | < 1 µM |  |  |  |
| O=C(O)c1cccc(C2CC2(NS(=O)(=O)c2ccc(-c3ccc(Cl)cc3)s2)C(=O)O)c1 (stereo not drawn) [Example 1-113] | ≥ 1 µM | < 0.1 µM | < 1 µM |  |  |  |
| CC1[C@H](c2ccccc2)[C@]1(NS(=O)(=O)c1ccc(-n2cc(Cl)cn2)nc1)C(=O)O (stereo partly drawn) [Example 2-557] |  |  |  | ≥ 1 µM | < 1 µM | < 0.1 µM |
| O=C(O)[C@]1(NS(=O)(=O)c2ccc(-c3ccc(Cl)cc3)s2)C[C@@H]1c1ccccc1 [Example 1-85] | ≥ 1 µM | < 0.1 µM | < 0.1 µM |  |  |  |
| COCCCC1(c2ccccc2)CC1(NS(=O)(=O)c1ccc(-c2cc(C(F)(F)F)on2)s1)C(=O)O (stereo not drawn) [Example 2-588] |  |  |  | < 1 µM | < 0.1 µM | < 1 µM |
| O=C(O)Cc1cccc(C2CC2(NS(=O)(=O)c2ccc(-c3ccc(Cl)cc3)s2)C(=O)O)c1 (stereo not drawn) [Example 2-181] | ≥ 1 µM | < 0.1 µM | < 0.1 µM |  |  |  |
| C[C@@H]1[C@H](c2ccccc2)[C@]1(NS(=O)(=O)c1ccc(-c2cc(C(F)(F)F)on2)s1)C(=O)O [Example 2-7, (1S,2R,3R)-2-methyl-3-phenyl-1-[5-(5-trifluoromethyl-isoxazol-3-yl)-thiophene-2-sulfonylamino]-cyclopropanecarboxylic acid] | < 1 µM | < 0.1 µM | < 0.1 µM |  |  |  |
| CN(C)C(=O)OCC1(c2ccccc2)CC1(NS(=O)(=O)c1ccc(-c2cc(C(F)(F)F)on2)s1)C(=O)O (stereo not drawn) [Example 2-320] |  |  |  | ≥ 1 µM | < 1 µM | < 1 µM |
| C[C@]1(c2ccccc2)C[C@@]1(NS(=O)(=O)c1ccc(-c2cc(C(F)F)on2)s1)C(=O)O [Example 2-382] |  |  |  | < 1 µM | < 0.1 µM | < 1 µM |
| O=C(NCC1(c2ccccc2)CC1(NS(=O)(=O)c1ccc(-c2ccc(Cl)cc2)s1)C(=O)O)N1CCOCC1 (stereo not drawn) [Example 2-381] |  |  |  | ≥ 10 µM | < 1 µM | < 1 µM |
| C[C@]1(c2ccccc2)C[C@@]1(NS(=O)(=O)c1ccc(-c2ccc(CO)cc2)s1)C(=O)O [Example 2-574] |  |  |  | < 1 µM | < 1 µM | < 0.1 µM |
| O=C(O)C1(NS(=O)(=O)c2ccc(-c3cc(C(F)(F)F)on3)s2)CC1(CN1CCCC1)c1ccccc1 (stereo not drawn) [Example 2-329] |  |  |  | ≥ 10 µM | ≥ 1 µM | ≥ 1 µM |
| O=C(O)C1(NS(=O)(=O)N2CCn3c(cc4cc(Cl)ccc43)C2)CC1c1ccccc1 (stereo not drawn) [Example 2-156] | ≥ 10 µM | ≥ 1 µM | ≥ 1 µM |  |  |  |
| C[C@]1(c2ccccc2)C[C@@]1(NS(=O)(=O)c1ccc(-c2cc(O)c(F)c(F)c2)s1)C(=O)O [Example 2-601] |  |  |  | ≥ 1 µM | < 1 µM | ≥ 1 µM |
| CC1[C@H](c2ccccc2)[C@]1(NS(=O)(=O)c1ccc(-c2nc3ccccc3[nH]2)s1)C(=O)O (stereo partly drawn) [Example 2-584] |  |  |  | ≥ 1 µM | < 1 µM | < 0.1 µM |
| CN(C)C(=O)CSCC1(c2ccccc2)CC1(NS(=O)(=O)c1ccc(-c2ccc(Cl)cc2)s1)C(=O)O (stereo not drawn) [Example 2-357] |  |  |  | ≥ 1 µM | < 0.1 µM | < 0.1 µM |

Results, then the molecule that gave them:

| IC50 [1, 4] | IC50 [2, 5] | IC50 [3, 6] | IC50 [1, 7] | IC50 [2, 8] | IC50 [3, 9] | Compound |
| --- | --- | --- | --- | --- | --- | --- |
|  |  |  | ≥ 10 µM | ≥ 10 µM | ≥ 1 µM | CC(=O)c1ccc(S(=O)(=O)N[C@@]2(C(=O)O)C(C)[C@@H]2c2ccccc2)s1 (stereo partly drawn) [Example 2-425] |
| ≥ 10 µM | ≥ 1 µM | < 1 µM |  |  |  | CN1CCN(c2ccc(C3CC3(NS(=O)(=O)c3ccc(-c4ccc(Cl)cc4)s3)C(=O)O)cc2)CC1 (stereo not drawn) [Example 2-246] |
| ≥ 10 µM | ≥ 1 µM | < 0.1 µM |  |  |  | O=C(O)C1(NS(=O)(=O)c2ccc(-c3ccc(OC(F)(F)F)cc3)s2)CC1c1ccccc1 (stereo not drawn) [Example 2-17] |
| ≥ 1 µM | < 1 µM | < 1 µM |  |  |  | CN(C)C(=O)c1ccc(C2CC2(NS(=O)(=O)c2ccc(-c3cc(C(F)(F)F)on3)s2)C(=O)O)cc1 (stereo not drawn) [Example 2-266] |
|  |  |  | ≥ 1 µM | < 0.1 µM | < 1 µM | C[C@]1(c2ccccc2)C[C@@]1(NS(=O)(=O)c1ccc(-n2cc(Cl)cn2)s1)C(=O)O [Example 2-498] |
| ≥ 1 µM | < 1 µM | < 0.1 µM |  |  |  | O=C(O)C1(NS(=O)(=O)c2ccc(-c3ccc(Cl)cc3)cc2)CC1c1cccc(OCCO)c1 (stereo not drawn) [Example 1-66] |
|  |  |  | ≥ 1 µM | < 1 µM | < 1 µM | O=C(O)[C@]1(NS(=O)(=O)c2ccc(-c3ccc([N+](=O)[O-])cc3)s2)C[C@@H]1c1ccccc1 [Example 2-388] |
|  |  |  | ≥ 1 µM | < 0.1 µM | < 0.1 µM | CN1CCN(C(=O)Cc2ccc([C@@H]3C[C@]3(NS(=O)(=O)c3ccc(-c4cc(C(F)(F)F)on4)s3)C(=O)O)cc2)CC1 [Example 2-294] |
|  |  |  | ≥ 1 µM | < 1 µM | < 1 µM | C[C@]1(c2ccccc2)C[C@@]1(NS(=O)(=O)c1ccc(-c2ccc3c(c2)OC(F)(F)O3)s1)C(=O)O [Example 2-544] |
|  |  |  | ≥ 10 µM | < 1 µM | < 1 µM | CC(=O)NCC1(c2ccccc2)CC1(NS(=O)(=O)c1ccc(-c2ccc(Cl)cc2)s1)C(=O)O (stereo not drawn) [Example 2-376] |
|  |  |  | ≥ 1 µM | < 1 µM | < 1 µM | CC1[C@H](c2ccccc2)[C@]1(NS(=O)(=O)N1CCN(c2ccc(Cl)nn2)CC1)C(=O)O (stereo partly drawn) [Example 2-503] |
| ≥ 10 µM | ≥ 10 µM | ≥ 1 µM |  |  |  | O=C(O)C1(NS(=O)(=O)N2CCC(Oc3ccc(C(F)(F)F)cc3)CC2)CC1c1ccccc1 (stereo not drawn) [Example 2-144] |
| ≥ 1 µM | < 0.1 µM | < 0.1 µM |  |  |  | O=C(O)C1(NS(=O)(=O)c2ccc(-c3cc(C(F)(F)F)on3)s2)CC1c1ccccc1 (stereo not drawn) [Example 1-121] |
|  |  |  | ≥ 10 µM | < 1 µM | < 1 µM | CCNC(=O)NCC1(c2ccccc2)CC1(NS(=O)(=O)c1ccc(-c2ccc(Cl)cc2)s1)C(=O)O (stereo not drawn) [Example 2-396] |
|  |  |  | ≥ 1 µM | < 0.1 µM | < 0.1 µM | CC(C)(C)OC(=O)NCCCC1(c2ccccc2)CC1(NS(=O)(=O)c1ccc(-c2ccc(Cl)cc2)s1)C(=O)O (stereo not drawn) [Example 2-284] |
